Test system: male C57BL/6J mice fed Chow or Western diet
Test: MLN4924 intervention for 9 weeks in 16-week WD-fed mice (Experimental II)
Type: in vivo
Method: Chronic MLN4924 treatment attenuates hepatic steatosis in Western diet-fed mice. Male C57BL/6J mice were fed Chow (C) or Western diet (WD) for 16 weeks. MLN4924 treatment (60 mg/kg, SQ, every other day) was initiated after mice were fed WD for 7 weeks as indicated. Control mice were injected with vehicle. After 16 weeks of feeding, mice were fasted from 9 am to 3 pm and euthanized. Scale bar = 125 µm. […]
WT male C57BL/6J mice were purchased from the Jackson Lab (Bar Harbor, ME). Western diet (TD. 88137, Envigo Inc. Indianapolis, IN) contains 42% fat calories and 0.2% cholesterol. Mice were housed in micro-isolator cages with corn cob bedding under 7 am - 7 pm light cycle and 7 pm -7 am dark cycle. MLN4924 was prepared in 10% 2-hydroxypropyl-b-cyclodextrin to a final concentration of 3 mg/ml. All mice were fasted for 6 h from 9 am to 3 pm before euthanasia. All animals received humane care according to the criteria outlined in the “Guide for the Care and Use of Laboratory Animals.” All animal protocols were approved by the Institutional Animal Care and Use Committee at the University of Kansas Medical Center and the University of Oklahoma Health Sciences Center. […]
Human normal livers (less than 5% steatosis) and histologically confirmed NASH livers were obtained from either the University of Kansas Liver Center or the Liver Tissue Cell Distribution System (LTCDS) at the University of Minnesota. Human and mouse tissue samples were homogenized in 1XRIPA buffer containing 1% SDS and protease inhibitors. After incubation on ice for 1 hour, the samples were centrifugation and supernatant was transferred to a new tube. The protein lysate was mixed with equal volume of 2X laemmli buffer and incubated at 95° C. for 5 minutes and used for SDS-PAGE and immunoblotting. ImageJ software (NIH) was used to determine band intensity.
Total liver RNA was purified with Trizol (Sigma-Aldrich, St. Louis, MO). Total liver RNA was used in reverse transcription with Oligo dT primer and SuperScript III reverse transcriptase (Thermo Fisher Scientific, Grand Island, NY). Real-time PCR was performed on a Bio-Rad CFX384 Real-time PCR system with iQ SYBR Green Supermix (Bio-rad, Hercules, CA). The comparative CT (Ct) method was used to calculate the relative mRNA expression. The relative mRNA expression was expressed as 2 ^-ΔΔCt with the control group arbitrarily set as “1”. […]

[1] = chronic MLN4924, 60 mg/kg SQ once every 2 days

NS(=O)(=O)OC[C@@H]1C[C@@H](n2ccc3c(N[C@H]4CCc5ccccc54)ncnc32)C[C@@H]1O [MLN4924, ((1S,2S,4R)-4-(4-((1S)-2,3-dihydro-1H-inden-1-ylamino)-7H-pyrrolo[2,3-d]pyrimidin-7-yl)-2-hydroxycyclopentyl) methyl sulfamate]
ALT (WD-fed mice): significantly reduced ALT
hepatic fat accumulation (WD-fed mice): significant reduction of hepatic fat accumulation
plasma insulin levels (WD-fed mice): not reduced
blood glucose (WD-fed mice, intervention for 9 weeks): completely normalized blood glucose
liver histology (chow-fed MLN4924-treated mice): appeared normal
plasma insulin (chow-fed mice): did not affect plasma insulin
alanine aminotransferase (ALT) elevation (chow-fed mice, 9 weeks): did not cause alanine aminotransferase (ALT) elevation
hypoglycemia (chow-fed mice, intervention for 9 weeks): without causing undesirable hypoglycemia
hepatic glucose 6-phosphatase (G6Pase) gene (chronic MLN4924): decreased hepatic gluconeogenic gene glucose 6-phosphatase (G6Pase)
liver pyruvate kinase (L-PK) gene (chronic MLN4924): downregulation of liver pyruvate kinase (L-PK)
hepatic IRS protein [1]: increased IRS protein
hepatic cullin neddylation [1]: decreased hepatic cullin neddylation
hepatic downstream AKT activation [1]: increased IRS protein and downstream AKT activation
tolerability / hepatotoxicity (chronic MLN4924, 9 weeks): well tolerated and did not cause hepatotoxicity

— patent US20230218654A1, “COMPOSITIONS AND METHODS FOR TREATING HYPERGLYCEMIA IN TYPE-2 DIABETES” (The Board of Regents of the university of Oklahoma, priority 2020, published 2023)
